Values quoted from earlier work, collected in patent publication US7329673B2, “Acylated spiropiperidine derivatives as melanocortin-4 receptor agonists” (Merck & Co., Inc., priority 2003, dated 2008).

What was measured:
[1] = test system: men with erectile dysfunction; settings: for duration of effect / onset of action: after an oral dose; for share of men/patients in whom effective (adequate response): oral
[2] = in vivo, po
[3] = test system: males with psychogenic erectile dysfunction

Cc1ccc(N(CC2=NCCN2)c2cccc(O)c2)cc1 [phentolamine]
duration of effect [1]: 2 h
onset of action [1]: 5 to 30 min
share of men/patients in whom effective (adequate response) [1]: 35-40%

CCCc1nn(C)c2c(=O)[nH]c(-c3cc(S(=O)(=O)N4CCN(C)CC4)ccc3OCC)nc12 [sildenafil]
duration of effect [1]: about 4 hours
onset of action [1]: 30 to 60 min
share of men/patients in whom effective (adequate response) [1]: about 70%

Ac-Nle-c[Asp-His-DPhe-Arg-Trp-Lys]-NH2 [MT-II]
absorption into the systemic circulation [2]: not absorbed into the systemic circulation
duration of action ([3]; in vivo): approximately 2.5 hours
time to onset of erection ([3]; in vivo): 10 to 20 min
response rate ([3]; injected intramuscularly or subcutaneously): 75%
